This note sets out measurements from patent US20100227896A1, “USE OF VITAMIN PP COMPOUNDS” (ASTELLAS DEUTSCHLAND GMBH, priority 1998, published 2010).

The subject of data set [1] is THP-1 cells. Kind of data set: Growth inhibition of THP-1 human leukaemia cells (WST-1 reagent, four days incubation). In kind it is cell-based. The note with it: for effect on the growth-inhibiting effect of K22.097: THP-1 cells, summary of Table 1; for IC50: Homo sapiens. As for the experimental part:
THP-1 cells derived from a human monocytic leukaemia plated at a density of 200,000 cells/ml in 96-well plastic dishes. Cultivation occurred in RPMI 1640 nutrient medium with 10% foetal calf serum (FCS) in a tissue culture incubator with a gas mixture of 5% CO2 and 95% air at a temperature of 37° C. For the individual concentrations and the controls without test substances as well as for the background with nutrient medium but without cells, three-fold batches were done for each. After four days of substance incubation 20 μl WST-1 reagent (Boehringer Mannheim) was respectfully pipetted in each individual well. After 30 to 60 minute incubation in the tissue culture incubator at 37° C. and 5% CO2, the light extinction was measured in an ELISA reader at 450 nm wave length. The backgrounds were each subtracted from the typical measured valves. (The IC50-values (defined as that concentration in which the cell growth was inhibited by 50%) was taken from the dose-response curves and given as a comparative measurement for the activity of the test compounds.
Furthermore, the anti-tumor substance Nr.159 with the internal label K22.175 according to the publication PCT/EP97/03245=WO97/48696 in the form of N-[4-(1-benzoylpiperidin-4-yl)-butyl]-3-(pyridin-3-yl)-acrylamide synthesized by the applicant was included in the experimental examinations. The results obtained therefrom confirm the above described finding on the useful effect according to the invention of the vitamin PP compounds.
In general terms: Formazan colour is commonly taken as a measure of viable cells.

Data set [2] has as its system NMRI mice. The protocol:
Parallel to this, 500 mg/kg nicotinamide was simultaneously intraperitoneally administered each to the individual dosage groups. 7 days after the beginning of treatment, the blood picture of the individual animals was examined.

Data set [3] concerns lymphocytes. Kind of data set: Vitality of freshly isolated spleen lymphocytes (flow cytometry, propidium iodide / 3,3'-dihexyloxacarbocyanin iodide, 2 days). In kind it is cell-based, Swiss mouse. The note with it: Mus musculus, Lymphocyte. The source says:
Many cytostatic agents and radiation therapies as well have a cytcotoxic effect not only on tumor cells but also on the blood cell system. This leads to a weakening of the immune defence which can lead to life threatening infections. In addition, this can result in a so-called tumor lyse syndrome which can, lead to the death of the patient by the relatively quick death of large cell masses. In order to test the possibility for a therapeutical use of nicotinic acid and/or nicotinamide for preventing such life threatening conditions by massive cell death, the effect of the substance was tested on freshly isolated lymphocytes as follows:
The spleen of a Swiss mouse served as a lymphocyte source.
The lymphocyte population was isolated from the spleen cell suspension over a ficoll gradient and taken up in IMEM-ZO culture medium with 0,1% dextran 70,000 and 2% foetal calf serum. […] Subsequently, 10,000 cells per each sample were measured on a flow-through cytometer and the percentage amount of vital cells in the population was determined. By means of the dose-response curves, IC50-values were calculated which were also employed in the following Tables for the characterization of the individual substances: […]
A general note: A flow cytometer gives signals particle by particle.

For data set [4], the system named is Cryptic cells of the large intestine. Kind of data set: Growth/vitality of primary cryptic cells of the large intestine (crystal violet, MTT-test, 4 days treatment). Format: cell-based. The source says:
Cryptic cells of the large intestine were isolated according to the method of Booth et al. (1995) with slight modifications. The removed large intestine was cut into pieces, the parts were finally cut after several-fold washing and digested with collagenase and dispase. Subsequently, the larger tissue pieces remaining in the suspension were sedimented, the supernatant was decanted and stored. The pellet was digested again under vigorous shaking with medium in order to release additional cryptic cells. After sedimentation, the supernatant was poured off again, combined with the first fraction and the cryptic cells were centrifuged at 50×g. After a further washing step, the centrifuge cryptic cells were suspended in culture medium and seeded at a density of 800 cells per well in 24-well-cultured dishes which were previously coated with collagen. The cells were incubated at 37° C. in a saturated water vapour atmosphere with 92.5% air and 7.5% CO2. […]
The growth of the culture was photometrically quantified after staining with crystal violet as a measure for the cell number and the vitality of the cells was determined with the MTT-test whose reaction depends on living cells with active mitochondria. Based on dose response curves, the IC50-values were calculated which are also used in the following Table 3 for characterization of the individual substance activity: […]

Like-named read-outs stand apart in the source and are kept apart here.

Regarding `NC(=O)c1cccnc1` [nicotinamide, reference compound], in data set [1], the “effect on the growth-inhibiting effect of K22.097” value is “abrogated”. The Leukocyte number in data set [2] (mouse, in vivo, ip, 500 mg/kg) is reported as 4,800 per μl.

`O=C(CCc1cccnc1)NCCCCC1CCN(C(c2ccccc2)c2ccccc2)CC1` [K22.097, N-[4-(1-diphenylmethylpiperidin-4-yl)-butyl]-3-(pyridin-3-yl)-propionamide]: the IC50 in data set [1] (THP-1, read-out: IC50-Value for K22.097, THP-1 cells, + 0.1 mM nicotinic acid) is above 10 µM; in data set [1] (THP-1, read-out: IC50-Value for K22.097, THP-1 cells, + 1 mM nicotinamide) it was above 10 µM; in data set [1] (THP-1, read-out: IC50-Value for K22.097, THP-1 cells, K22.097 alone) it was 0.01 µM; in data set [3] (read-out: IC50-Value for K22.097, mouse spleen lymphocytes, + 10 mM nicotinamide), above 1 µM; in data set [3] (read-out: IC50-Value for K22.097, mouse spleen lymphocytes, K22.097 alone), 0.001 µM; in data set [4] (read-out: IC50-Value for K22.097, primary intestine cryptic cells, + 1 mM nicotinamide), above 10 µM. Further, the IC50 in data set [4] (read-out: IC50-Value for K22.097, primary intestine cryptic cells, K22.097 alone) turned out to be 0.1 µM. The Leukocyte number in data set [2] (2 × 100 mg/kg K22.097 orally + 2 × 500 mg/kg nicotinamide intraperitoneally, day 7) is recorded as 6,900 per μl; in data set [2] (2 × 100 mg/kg K22.097 orally over 4 days, blood picture 7 days after beginning of treatment), 1,100 per μl; in data set [2] (2 × 120 mg/kg K22.097 orally + 2 × 500 mg/kg nicotinamide intraperitoneally, day 7) it was 5,900 per μl; in data set [2] (2 × 120 mg/kg K22.097 orally over 4 days, blood picture 7 days after beginning of treatment), 500 per μl.

Turning to `O=C(O)c1cccnc1` [nicotinic acid, reference compound], the “effect on the growth-inhibiting effect of K22.097” value in data set [1] is on record as “abrogated”.

Regarding `O=C(C=Cc1cccnc1)NCCCCC1CCN(C(=O)c2ccccc2)CC1` [K22.175, N-[4-(1-benzoylpiperidin-4-yl)-butyl]-3-(pyridin-3-yl)-acrylamide], the IC50 was above 0.03 µM in data set [1] (THP-1, THP-1 cells, + 0.1 mM nicotinic acid, read-out: IC50-Value for K22.175); above 0.03 µM in data set [1] (THP-1, THP-1 cells, + 1 mM nicotinamide, read-out: IC50-Value for K22.175); 0.0005 µM in data set [1] (THP-1, THP-1 cells, K22.175 alone, read-out: IC50-Value for K22.175).

In general, IC50 refers to the concentration that gives 50% inhibition.
